Patent US4205067A, “Antibiotics” (priority 1974, dated 1980)
Structures can show the parent of a compound that is named as a salt.

Legend:
[1] = test system: Staph. aureus (Russell); assay: MIC, serial dilution in nutrient agar, synergism with ampicillin; format: cell-based; conditions: alone
[2] = test system: E. coli B11; assay: as above; format: cell-based; conditions: alone
[3] = test system: Proteus rettgeri R110; assay: as above; format: cell-based; conditions: alone
[4] = test system: Proteus mirabilis 889; assay: as above; format: cell-based; conditions: alone
[5] = test system: Staph. aureus (Russell H); assay: as above; format: cell-based; conditions: alone
[6] = test system: E. coli JT39; assay: as above; format: cell-based; conditions: alone
[7] = test system: Proteus mirabilis 247; assay: as above; format: cell-based; conditions: alone
[8] = biological target: Escherichia coli β-lactamase (Escherichia coli, UniProt P62593); assay: β-lactamase inhibition (qualitative); format: biochemical
Source text: In a further experiment, the two substances were separated on a cellulose thin layer developed with isopropanol:water (8:2) and extracted from the cellulose with phosphate buffer.

[9] = test system: Staphylococcus aureus (Oxford); assay: bioautography zone diameter (cellulose TLC); format: cell-based; conditions: butanol/isopropyl alcohol/water 7:7:6
[10] = test system: Klebsiella aerogenes; assay: bioautography zone diameter (cellulose TLC); format: cell-based; conditions: butanol/isopropyl alcohol/water 7:7:6
[11] = test system: Bacillus subtilis; assay: bioautography zone diameter (cellulose TLC); format: cell-based; conditions: butanol/isopropyl alcohol/water 7:7:6
[12] = test system: Proteus morganii; assay: bioautography zone diameter (cellulose TLC); format: cell-based; conditions: butanol/isopropyl alcohol/water 7:7:6
[13] = test system: β-lactamases produced by Klebsiella aerogenes; assay: β-lactamase inhibition (qualitative); format: biochemical
[14] = test system: Escherichia coli, Klebsiella aerogenes, Proteus mirabilis, Proteus morganii and Staphylococcus aureus Russell; assay: synergy with ampicillin (qualitative); format: cell-based
[15] = test system: B. subtilis, Staphylococcus aureus, Escherichia coli, Salmonella typhimurium, Proteus mirabilis, Proteus morganii and Klebsiella aerogenes; assay: detection by bioautography after cellulose TLC (qualitative); format: cell-based, various bacterial species; conditions: n-butanol:isopropanol:water 7:7:6
[16] = biological target: β-lactamases produced by Staphylococcus aureus (Staphylococcus aureus, UniProt P00807); assay: β-lactamase inhibition (qualitative); format: biochemical
[17] = test system: Staphylococcus aureus (Russell); assay: bioautography zone diameter (cellulose TLC); format: cell-based; conditions: butanol/isopropyl alcohol/water 7:7:6
[18] = test system: β-lactamase of Escherichia coli B11; assay: I50 determination: inhibition of hydrolysis of ampicillin by E. coli B11 β-lactamase (starch-iodometric assay); format: biochemical; conditions: MM 4550A
Source text: This β-lactamase is classified as a type IIIa enzyme according to the classification of Richmond and Sykes [Adv. in Microbiol.Physiol. 9 31 (1973)]
The rate of β-lactamase hydrolysis of ampicillin to its penicilloic acid can be followed by a starch-iodometric assay in which one measures the rate of formation of penicilloic acid by following the decolorization of a starch-iodine complex. This method and the preparation of the β-lactamase are described in a paper by Cole M., Elson S., and Fullbrook P.D. (Biochemical Journal 1972, 127, 295-308). […] The procedure was as follows:
Buffer: 0.05M pH7 potassium phosphate buffer
Prepared from E. coli B11 as described by Cole
Enzyme: et al, Biochem. J. (1972) 127, 295. The dilution
of the enzyme preparation in buffer was such as
to give a fall of about 0.3 optical density
units per 100 secs. in the uninhibited reaction.
The reactions were carried out in 1 cm cuvettes at 37° C. in an SP 800 Pye Unicam spectrophotometer. This instrument can carry four sample cuvettes and their corresponding blanks. The first cuvette was used for the control reaction and contained no inhibitor. The 2nd, 3rd and 4th cuvettes were used for various dilutions of the inhibitor.
Inhibitor of buffer 0.1 ml 0.1 ml
Substrate (added after incubation […]

[19] = test system: various species including strains of Staphylococcus aureus, Bacillus subtilis, Escherichia coli, Klebsiella aerogenes, Proteus mirabilis; assay: antibacterial activity (qualitative); format: cell-based, various bacterial species; conditions: sodium salt, inter alia S. aureus, B. subtilis, E. coli, K. aerogenes, P. mirabilis
[20] = solubility; conditions: sodium salt
[21] = test system: Escherichia coli 10418; assay: bioautography zone diameter (cellulose TLC); format: cell-based; conditions: butanol/isopropyl alcohol/water 7:7:6
[22] = test system: Enterobacter aerogenes; assay: bioautography zone diameter (cellulose TLC); format: cell-based; conditions: butanol/isopropyl alcohol/water 7:7:6
[23] = specific activity relative to culture filtrate (arbitrary units)
Experimental: The material produced above was arbitrarily assigned an activity of 340 1/ml. Assays were determined as described in Description 3.

[24] = stability; format: physicochemical; conditions: monobasic salts and free acid

Chain of Escherichia coli β-lactamase (P62593 24-286 limits assumed): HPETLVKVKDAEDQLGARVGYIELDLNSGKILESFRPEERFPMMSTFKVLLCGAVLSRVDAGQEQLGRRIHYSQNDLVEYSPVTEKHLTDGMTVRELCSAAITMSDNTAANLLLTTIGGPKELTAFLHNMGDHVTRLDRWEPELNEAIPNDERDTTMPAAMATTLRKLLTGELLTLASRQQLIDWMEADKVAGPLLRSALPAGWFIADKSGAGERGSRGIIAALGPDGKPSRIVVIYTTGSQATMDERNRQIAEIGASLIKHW
Chain of β-lactamases produced by Staphylococcus aureus (P00807 25-281): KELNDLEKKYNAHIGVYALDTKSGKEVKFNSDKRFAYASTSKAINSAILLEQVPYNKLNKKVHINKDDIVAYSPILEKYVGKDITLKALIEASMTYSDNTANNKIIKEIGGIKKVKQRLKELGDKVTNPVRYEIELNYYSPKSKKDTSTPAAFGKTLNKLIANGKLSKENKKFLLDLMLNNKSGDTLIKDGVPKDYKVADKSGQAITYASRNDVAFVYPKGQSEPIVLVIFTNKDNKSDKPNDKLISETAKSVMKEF

CC1(C)S[C@@H]2[C@H](NC(=O)[C@H](N)c3ccccc3)C(=O)N2[C@H]1C(=O)O [Ampicillin, ampicillin]
minimum inhibitory concentration [1]: 250
minimum inhibitory concentration [2]: > 500
minimum inhibitory concentration [3]: 250
minimum inhibitory concentration [4]: > 500
minimum inhibitory concentration [5]: > 500
minimum inhibitory concentration [6]: > 500
minimum inhibitory concentration [7]: > 500

CC(=O)N/C=C/[S+]([O-])C1=C(C(=O)O)N2C(=O)C(C(C)OS(=O)(=O)O)C2C1 (stereo not shown) [MM 4550A]
enzyme inhibitory activity against β-lactamase [8]: possesses enzyme inhibitory activity
Zone Diameter on Bioautography [9]: 13.0 mm
Zone Diameter on Bioautography [10]: 20.0 mm
Zone Diameter on Bioautography [11]: 24.0 mm
Zone Diameter on Bioautography [12]: 16.0 mm
enzyme inhibitory activity against β-lactamase [13]: possesses enzyme inhibitory activity
synergy when mixed with ampicillin [14]: synergyses its activity
detection by bioautography [15]: may be detected by bioautography on a variety of organisms
enzyme inhibitory activity against β-lactamase [16]: possesses enzyme inhibitory activity
Zone Diameter on Bioautography [17]: 12.0 mm
I50 [18]: less than 0.0001 μg/ml
antibacterial activity against various species ([19]; Acinetobacter anitratus, Serratia, Shigella sonnei): possesses antibacterial activity
solubility in chloroform, diethylether and hydrocarbons [20]: substantially insoluble
solubility in methanol [20]: soluble
solubility in water [20]: highly soluble
Zone Diameter on Bioautography [21]: 20.0 mm
Zone Diameter on Bioautography [22]: 6.5 mm

CC(=O)N/C=C/SC1=C(C(=O)O)N2C(=O)C(C(C)OS(=O)(=O)O)C2C1 (stereo not shown) [MM 13902]
activity ([23]; partially purified, after Amberlite XAD 4): 37,000 units/mg
synergy when mixed with ampicillin [14]: synergizes its activity
detection by bioautography [15]: may be detected by bioautography on a variety of organisms
stability to isolation from mixtures such as MM 4550 (Complex) [24]: not sufficiently stable to isolate from mixtures
antibacterial activity against various species ([19]; Salmonella typhi, Ps. aeruginosa): possessed antibacterial activity
solubility in chloroform, diethylether and hydrocarbons [20]: substantially insoluble
solubility in methanol [20]: soluble
solubility in water [20]: highly soluble
Zone Diameter on Bioautography [22]: No Zone

CC(=O)N/C=C/SC1=C(C(=O)O)N2C(=O)C(C(C)OS(=O)(=O)O)C2C1 (stereo not shown) [MM 13902 di-sodium salt]
activity ([23]; after cellulose chromatography, yellowish powder): 73,000 units/mg
